In US12419305B2, “Antimicrobial compositions” (Firmenich SA, priority 2018, dated 2025) one finds Effect fraction, Log reduction and log reduction data, which are given here for nine molecules.

The subject of assay [1] is Salmonella enterica ATCC 10708. Briefly: BCT test (bacterial contact time), 60 s, log reduction / effect fraction; CI by Compusyn. In kind it is cell-based. Particulars: BCT 60 s, in 25% EtOH. How it is done:
(§1) E. coli, S. aureus, P. aeruginosa, and S. enterica: Separate suspensions of the E. coli ATCC 10536 strain, S. aureus ATCC 6538 strain, Pseudomonas aeruginosa ATCC 15442 strain, and the Salmonella enterica ATCC 10708 strain were prepared as follows: Stock cultures (stored at −80° C.) were thawed and sub-cultured onto Tryptic Soy Agar (TSA) agar plate media, and incubated at 37° C. for 24 h to obtain single colonies. Single colonies of the primary cultures were streaked onto TSA plates and incubated at 37° for 24 h to generate secondary cultures. Single colonies of secondary cultures picked and used to inoculate into 50 mL of TSB broth. The inoculated TSB broth was incubated at 37° C. at 180 rpm for 18 h. Aliquots (0.5 ml) of the 18 h culture were inoculated into 50 ml of fresh TSB broth, and incubated at 37° C. at 180 rpm for 2-3 hours. When the OD600 nm value of the broth reached 1-2, cells were harvested by centrifugation at 5000 rpm for 10 min, and then resuspended in fresh TSB broth at a concentration of 1-5×10^8 CFU/mL. These suspensions were used as the bacterial suspensions for the BCT test.
(§2) BCT Test: Test compositions at a range of concentrations (either combinations of more than one perfume ingredient, and comparative compositions comprising the single perfume ingredients) were prepared in ethanol. Five replicates of each test composition were added into 96-well microtiter plates (120 μl per well), with row B containing control compositions containing the ethanol solution alone. 120 μl of bacterial cell suspensions at a concentration of approximately 1×10^8 bacteria per mL (as prepared above) were added to each well of the microtiter plate. The bacterial suspensions were incubated with the test solutions for 45, 60, or 120 seconds. Following the incubation of the bacterial suspensions with the test solutions, serial dilutions of the bacterial suspensions were generated (three serial 1:10 dilutions, followed by 17 serial 1:2 dilutions), in multiwell microtiter plates.
(§3) Each plate was sealed and incubated at 37° C. under agitation (180 rpm). After incubation, the turbidity of the wells (OD600 nm) was determined using a Tecan microplate reader. Turbid wells were regarded as positive growth, due to the presence of viable cells. The total number of viable cells (log CFU) for each sample was calculated. And the log reduction for each test composition at the final concentration (dose) was calculated against the control sample of the ethanol solution.
(§4) Determination of Synergy via the Combination Index (CI): The CI was calculated using Compusyn software (ComboSyn, Inc., as created by Dr. Dorothy Chou in 2005), according to the manufacturer's instructions. The concentration of each test composition (combinations of more than one perfume ingredient, and comparative compositions comprising the single perfume ingredients used to generate the combination) and their corresponding effect fraction was entered, and the corresponding CI calculated.
(§5) When the calculated CI values were less than 0.9, the combination of perfume ingredients was regarded as having synergistic effect. When the calculated CI was between 1.0 a 0.9, the combination of perfume ingredients was regarded as having an additive effect. When the calculated CI was greater than 1.0, the combination of perfume ingredients was regarded as having an antagonistic effect.

The subject of assay [2] is E. coli ATCC 10536. Briefly: BCT test (bacterial contact time), 45 s, log reduction / effect fraction; CI by Compusyn. It counts as cell-based, Escherichia coli. As to conditions: 45 s, in 20% EtOH. How it is done:
as §1, §2, §3, §4, §5

For assay [3], the system named is S. aureus ATCC 6538. Briefly: BCT test (bacterial contact time), 60 s, log reduction / effect fraction; CI by Compusyn. It counts as cell-based, Staphylococcus aureus. As to conditions: BCT 60 s, in 25% EtOH. How it is done:
as §1, §2, §3, §4, §5

Consider `COc1ccc(C=O)cc1` [Aldehyde Anisique], for which the Effect fraction in assay [1] (Dose 0.4 % w/v) is 0.190; in assay [1] (Dose 0.42 % w/v), 0.370; in assay [1] (Dose 0.46 % w/v), 0.670; in assay [1] (Dose 0.5 % w/v), 1.000. For the same molecule, the Log reduction in assay [1] (Dose 0.4 % w/v) was found to be 1.5; in assay [1] (Dose 0.42 % w/v) it was 2.8; in assay [1] (Dose 0.46 % w/v) it was 5.2; in assay [1] (Dose 0.5 % w/v) it was 7.7.

Turning to `OCc1ccccc1` [Benzyl alcohol], the log reduction at 1 % strength in assay [2] (Escherichia coli, ATCC10536, 45 s, dose 1.000 % w/v) worked out at 0.2. In addition, the log reduction at 1.2 % strength in assay [2] (Escherichia coli, ATCC10536, 45 s, dose 1.200 % w/v) came out at 2. Further, the log reduction at 1.3 % strength in assay [2] (Escherichia coli, ATCC10536, 45 s, dose 1.300 % w/v) was found to be 4.3. The log reduction at 1.4 % strength in assay [2] (Escherichia coli, ATCC10536, 45 s, dose 1.400 % w/v) turned out to be 5.9. In addition, the log reduction at 1.6 % strength in assay [2] (Escherichia coli, ATCC10536, 45 s, dose 1.600 % w/v) came out at 7.3.

With `OCCc1ccccc1` [PEA], the Effect fraction in assay [2] (dose 0.650 % w/v) was 0.00; in assay [2] (dose 0.700 % w/v), 0.01; in assay [2] (dose 0.750 % w/v), 0.11; in assay [2] (dose 0.800 % w/v), 0.16; in assay [2] (dose 0.850 % w/v), 0.60. Further, the Log reduction in assay [2] (dose 0.650 % w/v) turned out to be 0.0; in assay [2] (dose 0.700 % w/v) it was 0.1; in assay [2] (dose 0.750 % w/v), 0.8; in assay [2] (dose 0.800 % w/v) it was 1.2; in assay [2] (dose 0.850 % w/v), 4.3.

`O=C/C=C/c1ccccc1` [Cinnamic aldehyde]: the log reduction at 0.25 % strength in assay [3] (Staphylococcus aureus, ATCC6538, 1 min, Dose 0.25 % w/v) came out at 0.3. In assay [3] (Staphylococcus aureus, ATCC6538, 1 min, Dose 0.3 % w/v), the log reduction at 0.3 % strength was found to be 2.9. Also, in assay [3] (Staphylococcus aureus, ATCC6538, 1 min, Dose 0.325 % w/v), the log reduction at 0.325 % strength was found to be 4.2. Besides, the log reduction at 0.35 % strength in assay [3] (Staphylococcus aureus, ATCC6538, 1 min, Dose 0.35 % w/v) stood at 6.5. Besides, in assay [3] (Staphylococcus aureus, ATCC6538, 1 min, Dose 0.4 % w/v), the log reduction at 0.4 % strength is 7.1.

As for `CCOC(=O)C=Cc1ccccc1` [Ethyl Cinnamate], in assay [2] (Escherichia coli, ATCC10536, 45 s, dose 0.030 % w/v), the log reduction at 0.03 % strength amounted to 1. Moreover, the log reduction at 0.035 % strength in assay [2] (Escherichia coli, ATCC10536, 45 s, dose 0.035 % w/v) came out at 3.7. In assay [2] (Escherichia coli, ATCC10536, 45 s, dose 0.040 % w/v), the log reduction at 0.04 % strength stood at 5.4. Further, the log reduction at 0.045 % strength in assay [2] (Escherichia coli, ATCC10536, 45 s, dose 0.045 % w/v) worked out at 7.3.

For `CC(=O)OC(C)c1ccccc1` (stereo not drawn) [Styrallyl Acetate], the Effect fraction was found to be 0.03 in assay [2] (dose 0.120 % w/v); 0.09 in assay [2] (dose 0.140 % w/v); 0.37 in assay [2] (dose 0.160 % w/v); 1.00 in assay [2] (dose 0.200 % w/v); 0.86 in assay [2] (dose […] w/v). Also, the Log reduction in assay [2] (dose 0.120 % w/v) is 0.3; in assay [2] (dose 0.140 % w/v), 0.7; in assay [2] (dose 0.160 % w/v), 2.7; in assay [2] (dose 0.200 % w/v), 7.4; in assay [2] (dose […] w/v), 6.4.

For `CCC(CC(C)CC)=NO` (stereo not drawn) [Stemone], the Effect fraction is on record as 0.050 in assay [3] (Dose 0.1 % w/v); 0.220 in assay [3] (Dose 0.120 % w/v); 0.660 in assay [3] (Dose 0.140 % w/v); 0.890 in assay [3] (Dose 0.15 % w/v); 1.000 in assay [3] (Dose 0.160 % w/v). Also, the Log reduction came out at 0.4 in assay [3] (Dose 0.1 % w/v); 1.6 in assay [3] (Dose 0.120 % w/v); 4.8 in assay [3] (Dose 0.140 % w/v); 6.4 in assay [3] (Dose 0.15 % w/v); 7.2 in assay [3] (Dose 0.160 % w/v).

For the molecule `COC(C)(C)CCCC(C)C=O` (stereo not drawn) [Methoxymelonal], the Effect fraction in assay [3] (Dose 0.600 % w/v) worked out at 0.020; in assay [3] (Dose 0.800 % w/v) it was 0.110; in assay [3] (Dose 0.900 % w/v) it was 0.360; in assay [3] (Dose 1.000 % w/v) it was 0.700; in assay [3] (Dose 1.200 % w/v) it was 0.970. For the same molecule, the Log reduction is given as 0.1 in assay [3] (Dose 0.600 % w/v); 0.8 in assay [3] (Dose 0.800 % w/v); 2.6 in assay [3] (Dose 0.900 % w/v); 5.1 in assay [3] (Dose 1.000 % w/v); 7.1 in assay [3] (Dose 1.200 % w/v).

With `OC/C=C/c1ccccc1` [Cinnamic Alcohol Ord], the Effect fraction was determined as 0.00 in assay [2] (dose 0.200 % w/v); 0.02 in assay [2] (dose 0.250 % w/v); 0.17 in assay [2] (dose 0.300 % w/v); 0.52 in assay [2] (dose 0.350 % w/v); 1.00 in assay [2] (dose 0.400 % w/v). Also, the Log reduction in assay [2] (dose 0.200 % w/v) is on record as 0; in assay [2] (dose 0.250 % w/v) it was 0.2; in assay [2] (dose 0.300 % w/v), 1.3; in assay [2] (dose 0.350 % w/v) it was 4.0; in assay [2] (dose 0.400 % w/v), 7.6.
